Experimental data as given in PMC5613693, “Interactions of Desmethoxyyangonin, a Secondary Metabolite from Renealmia alpinia, with Human Monoamine Oxidase-A and Oxidase-B” (Evidence-based Complementary and Alternative Medicine : eCAM, 2017).
Like-named read-outs stand apart in the source and are kept apart here. Each block holds one compound with its values, some of them ahead of it.

Assays:
Type in all cases: biochemical
recombinant human MAO-A [1] = molecular target: T1, recombinant human MAO-A (Homo sapiens, UniProt P21397); assay: Fluorometric kynuramine deamination assay, MAO-A inhibition (IC50)
T1 construct: purchased BD Biosciences (Bedford, MA, USA); host or cells: baculovirus (Autographa californica) infected insect cells (BTI-TN-5B1-4)
T1 sequence (P21397 1-527): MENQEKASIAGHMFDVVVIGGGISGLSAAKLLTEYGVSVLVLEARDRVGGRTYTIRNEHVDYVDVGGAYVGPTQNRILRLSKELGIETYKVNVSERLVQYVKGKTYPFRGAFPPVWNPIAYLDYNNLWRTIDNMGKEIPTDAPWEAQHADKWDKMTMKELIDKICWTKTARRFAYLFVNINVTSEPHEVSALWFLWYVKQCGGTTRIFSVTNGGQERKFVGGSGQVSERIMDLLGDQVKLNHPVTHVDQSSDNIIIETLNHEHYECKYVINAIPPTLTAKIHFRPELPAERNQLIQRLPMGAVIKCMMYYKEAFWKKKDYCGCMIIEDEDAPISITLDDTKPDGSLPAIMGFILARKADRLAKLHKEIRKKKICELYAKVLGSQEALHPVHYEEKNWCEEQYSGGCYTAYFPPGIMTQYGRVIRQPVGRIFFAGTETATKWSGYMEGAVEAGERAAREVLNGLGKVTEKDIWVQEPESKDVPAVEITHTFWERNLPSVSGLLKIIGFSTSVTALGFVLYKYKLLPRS
Protocol: (§1) Pure recombinant human monoamine oxidases (MAO-A and MAO-B) enzymes overexpressed in baculovirus (Autographa californica) infected insect cells (BTI-TN-5B1-4) were purchased from BD Biosciences, (Bedford, MA, USA).
(§2) Stock solutions of the test compounds/extracts were prepared in DMSO and diluted further in 0.1 M potassium phosphate buffer (pH 7.4) to obtain the desired concentrations. MAO-A and MAO-B activities were determined by fluorometric kynuramine deamination assay set up in 384-well solid white flat-bottom plates. MAO-A and MAO-B inhibition activities (IC50 values) were determined using fixed concentration of the substrate kynuramine and varying concentrations of the test compounds or extracts. The enzyme reactions were carried out in 0.1 M potassium phosphate buffer (pH-7.4). […] The reaction mixtures with buffer/substrate/inhibitor were preincubated for 10 minutes at 37°C, followed by addition of MAO-A and MAO-B to initiate the reaction. The solid white microplates were incubated for 20 minutes at 37°C and the enzymatic reaction was stopped by addition of 28 µL of 2 N NaOH to each well. The deaminated product of kynuramine, which spontaneously cyclizes to 4-hydroxyquinoline, was measured fluorometrically at 320 nm excitation and 380 nm emission wavelengths with a plate reader (SpectraMax M5, Molecular Devices, Sunnyvale, CA, USA). The IC50 values were computed by XL-Fit® from the dose-response inhibition curves.

recombinant human MAO-B [2] = molecular target: T2, recombinant human MAO-B (Homo sapiens, UniProt P27338); assay: Fluorometric kynuramine deamination assay, MAO-B inhibition (IC50); settings: for IC50: kynuramine 50 μM, mean ± SD of triplicate, read-out: Monoamine oxidase-B IC50; for Index MAO-A/B: ratio of IC50 MAO-A / IC50 MAO-B
T2 construct: purchased BD Biosciences (Bedford, MA, USA); host or cells: baculovirus (Autographa californica) infected insect cells (BTI-TN-5B1-4)
T2 sequence (P27338 1-520): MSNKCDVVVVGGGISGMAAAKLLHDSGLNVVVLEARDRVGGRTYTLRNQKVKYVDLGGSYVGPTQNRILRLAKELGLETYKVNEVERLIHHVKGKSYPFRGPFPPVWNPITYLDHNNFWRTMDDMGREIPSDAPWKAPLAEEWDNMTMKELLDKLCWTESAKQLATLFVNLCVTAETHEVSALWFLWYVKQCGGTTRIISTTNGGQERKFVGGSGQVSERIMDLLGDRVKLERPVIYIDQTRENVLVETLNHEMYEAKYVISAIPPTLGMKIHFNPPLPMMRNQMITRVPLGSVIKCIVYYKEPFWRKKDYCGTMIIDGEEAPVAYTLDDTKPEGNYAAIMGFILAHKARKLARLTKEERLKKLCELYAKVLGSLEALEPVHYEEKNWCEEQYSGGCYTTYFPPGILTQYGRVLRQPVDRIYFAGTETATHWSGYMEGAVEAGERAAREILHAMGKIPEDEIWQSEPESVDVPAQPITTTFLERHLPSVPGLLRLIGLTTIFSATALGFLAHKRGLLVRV
Protocol: as §1, §2

recombinant human MAO-A [3] = molecular target: T1, recombinant human MAO-A; assay: Enzyme kinetics and mechanism of inhibition of MAO-A; settings: Lineweaver-Burk / dialysis
Protocol: (§3) Results are presented as double reciprocal Lineweaver-Burk plots. The kinetic data, namely, KM, Vmax, and Ki values, were calculated by SigmaPlot 12.3 with enzyme-kinetics module using Michaelis-Menten equation. The results were also analyzed for the type of inhibition.
(§4) To comprehend the type of inhibition, we examined 6 against both MAO-A and MAO-B at varying concentrations of kynuramine, a nonselective substrate. Desmethoxyyangonin 6 was tested at two concentrations: one above and the other below the IC50 value. For each experiment, three sets of assays were done at variable concentrations of the substrate: two concentrations of the inhibitor/compound and one control without inhibitors. The results are presented as double reciprocal Lineweaver-Burk plots and the kinetic data, namely, KM, Vmax, and Ki values, were computed by SigmaPlot 12.3 with enzyme-kinetics module using Michaelis-Menten equation (Table 2).

recombinant human MAO-B [4] = molecular target: T2, recombinant human MAO-B; assay: Enzyme kinetics and mechanism of inhibition of MAO-B; settings: for Type of Inhibition, Monoamine oxidase-B: Lineweaver-Burk / dialysis; for Selectivity / higher affinity for MAO-B than MAO-A (by Ki): from Ki values
Protocol: as §3, §4

recombinant human MAO-A [5] = molecular target: T1, recombinant human MAO-A; assay: Equilibrium dialysis assay of enzyme-inhibitor complex, MAO-A
Protocol: (§5) Binding and inhibition of MAO-A and MAO-B with desmethoxyyangonin 6 were further examined by incubating the enzyme with high concentrations of the inhibitor followed by extensive dialysis of the enzyme-inhibitor complex and recovery of enzyme activities. MAO-A (0.05 mg/mL protein) was incubated with desmethoxyyangonin 6 (20 μM and 100.0 μM) and MAO-B (0.05 mg/mL protein) was incubated with desmethoxyyangonin 6 (1.50 μM and 20.0 μM) in an enzyme incubation mixture of 1 mL containing 100 mM potassium phosphate buffer (pH 7.4). Formation of enzyme-inhibitor complex was allowed by incubation of the reaction mixtures for 20 min at 37°C. The enzyme-inhibitor mixtures after incubation were chilled, transferred to the dialysis bags, and dialyzed against 25 mM potassium phosphate buffer (pH 7.4) for 14–16 hours at 4°C (changing the dialysis buffer three times). The enzyme catalytic activities were measured before and after dialysis.
(§6) The control enzymes without inhibitor were also run concurrently. […] The binding characteristics of desmethoxyyangonin 6 with MAO-A and MAO-B were examined by equilibrium dialysis to measure dissociation of the enzyme-inhibitor complex (Figure 6). MAO-A and MAO-B were incubated with high concentration of desmethoxyyangonin 6 for 20 minutes at 37°C to allow binding of inhibitor with the enzyme and formation of enzyme-inhibitor complex. The mixtures of enzyme-inhibitor complex were dialyzed overnight at 4°C against 25 mM KHPO4 (pH-7.4) buffer. The enzyme activities were examined before and after dialysis. Through overnight dialysis, the recombinant human MAO-A enzyme lost about 10–15% of activity. Incubation of MAO-A with 20.0 and 100 μM concentrations of desmethoxyyangonin 6 inhibited more than 65% of the enzyme activity (Figure 6). After the dialysis, more than 90% catalytic activity of MAO-A was recovered from enzyme-desmethoxyyangonin 6 incubation mixtures. Similarly, MAO-B lost about 10–15% of the enzyme activity during overnight dialysis.

recombinant human MAO-B [6] = molecular target: T2, recombinant human MAO-B; assay: Equilibrium dialysis assay of enzyme-inhibitor complex, MAO-B
Protocol: as §5, §6

recombinant human MAO-A [7] = molecular target: T1, recombinant human MAO-A; assay: Time-dependent enzyme inhibition assay, MAO-A; settings: 7.50 μM, preincubation 0-15 min
Protocol: (§7) MAO-A and MAO-B enzymes were preincubated for different time periods (0–15 min) with the inhibitor. […] Controls without inhibitors were also run simultaneously. The enzyme activities were determined as described above.
as §6

recombinant human MAO-B [8] = molecular target: T2, recombinant human MAO-B; assay: Time-dependent enzyme inhibition assay, MAO-B; settings: 0.40 μM, preincubation 0-15 min
Protocol: as §7, §6

[9] = kynuramine 80 μM, mean ± SD of triplicate, read-out: Monoamine oxidase-A IC50
[10] = equilibrium dialysis dissociation

Structure (SMILES): O[C@H](CCc1ccccc1)C[C@@H](O)CCc1ccccc1 [Yashabushidiol A, 5, 3,5-heptanediol-1,7-diphenyl]
IC50 (recombinant human MAO-A [1]; [9]): > 100 µM | IC50 (recombinant human MAO-B [2]): 35.38 ± 0.121 µM

Structure (SMILES): COc1ccc([C@@H]2CC(=O)c3c(O)cc(OC)cc3O2)cc1 [4′-Methyl ether sakuranetin, 2, naringenin 7,4′-dimethyl ether]
IC50 (recombinant human MAO-A [1]; [9]): 31.4 ± 4.58 µM | IC50 (recombinant human MAO-B [2]): > 100 µM

Structure (SMILES): COc1cc(O)c2c(c1)O[C@H](c1ccccc1)CC2=O [Pinostrobin, 1, pinostrobin]
IC50 (recombinant human MAO-A [1]; [9]): 23.9 ± 1.35 µM | IC50 (recombinant human MAO-B [2]): 45.5 ± 4.31 µM | Index MAO-A/B (recombinant human MAO-B [2]): 0.524

Structure (SMILES): COc1cc(O)c2c(c1)O[C@H](c1ccc(O)cc1)CC2=O [Sakuranetin, 3, naringenin 7-methyl ether]
IC50 (recombinant human MAO-A [1]): 45.5 ± 5.71 µM | IC50 (recombinant human MAO-B [2]): 36.5 ± 6.63 µM | Index MAO-A/B (recombinant human MAO-B [2]): 1.246

More lines, in order of falling IC50 (recombinant human MAO-A [1]; [9]), values ahead:

IC50 (recombinant human MAO-A [1]; [9]): 6.33 ± 0.206 µM | IC50 (recombinant human MAO-B [2]): 10 ± 3.24 µM
Structure (SMILES): COc1cc(O)c(C(=O)/C=C/c2ccccc2)c(O)c1 [Pinostrobin chalcone, 4, 2′,6′-dihydroxy-4′-methoxychalcone]

MAO inhibition in words (recombinant human MAO-A [1]; MAO-A and MAO-B inhibition assays): potent MAO inhibition | IC50 (recombinant human MAO-A [1]; [9]): 1.85 ± 0.086 µM | Preferential inhibition of MAO-B than MAO-A (by IC50) (recombinant human MAO-B [2]; from IC50 values): 15 fold | IC50 (recombinant human MAO-B [2]): 0.123 µM | Type of Inhibition, Monoamine oxidase-A (recombinant human MAO-A [3]): Mixed/reversible | Type of Inhibition, Monoamine oxidase-A (recombinant human MAO-A [3]; listed as desmethoxyyangonin 6): mixed inhibitor | Type of Inhibition, Monoamine oxidase-B (recombinant human MAO-B [4]): Competitive/reversible | Type of Inhibition, Monoamine oxidase-B (recombinant human MAO-B [4]; listed as 6): competitive | Selectivity / higher affinity for MAO-B than MAO-A (by Ki) (recombinant human MAO-B [4]; listed as Compound 6): about 30 fold | Selectivity / higher affinity for MAO-B than MAO-A (by Ki) (recombinant human MAO-B [4]; listed as desmethoxyyangonin 6): 29 fold | Inhibition of MAO-A enzyme activity before dialysis (recombinant human MAO-A [5]; 20.0 and 100 μM, 20 min at 37°C): more than 65% | Catalytic activity of MAO-A recovered after dialysis (recombinant human MAO-A [5]; 20.0 and 100 μM, overnight dialysis at 4°C): more than 90% | Reversibility of MAO-A inhibition (recombinant human MAO-A [5]; [10]): reversible binding | Inhibition of MAO-B enzyme activity before dialysis (recombinant human MAO-B [6]; 1.50 and 20.0 μM, 20 min at 37°C): more than 90% | Recovery of MAO-B enzyme activity after dialysis (recombinant human MAO-B [6]; 1.50 and 20.0 μM, overnight dialysis at 4°C): fully recovered | Reversibility of MAO-B inhibition (recombinant human MAO-B [6]; [10]): reversible binding | Time dependence of MAO-A inhibition (recombinant human MAO-A [7]): not time-dependent | Time dependence of MAO-B inhibition (recombinant human MAO-B [8]): not time-dependent
Structure (SMILES): COc1cc(/C=C/c2ccccc2)oc(=O)c1 [Desmethoxyyangonin, 6, desmethoxyyangonin]
